Legend:
Conditions in all cases: Compound concentration 10 µM
[1] = biological target: Sigma non-opioid intracellular receptor 1 (Homo sapiens) (UniProt Q99720)
Description: PDSP Primary Binding target: SIGMAR1 - Compounds are tested at 10 uM concentration, plate are incubated at room temperature in the dark for 90 minutes. Reaction are stopped by vacuum filtration onto 0.3% polyethyleneimine soaked filter mats using Filtermate harvester. Scintilation cocktail is then melted onto microwave-dried filters on a hot plate and the radio activity is counted in Microbia counter.

[2] = biological target: Histamine H2 receptor (Homo sapiens) (UniProt P25021)
Description: PDSP Primary Binding target: HRH2 - Compounds are tested at 10 uM concentration, plate are incubated at room temperature in the dark for 90 minutes. Reaction are stopped by vacuum filtration onto 0.3% polyethyleneimine soaked filter mats using Filtermate harvester. Scintilation cocktail is then melted onto microwave-dried filters on a hot plate and the radio activity is counted in Microbia counter.

[3] = biological target: Sodium-dependent dopamine transporter (Homo sapiens) (UniProt Q01959)
Description: PDSP Primary Binding target: SLC6A3 - Compounds are tested at 10 uM concentration, plate are incubated at room temperature in the dark for 90 minutes. Reaction are stopped by vacuum filtration onto 0.3% polyethyleneimine soaked filter mats using Filtermate harvester. Scintilation cocktail is then melted onto microwave-dried filters on a hot plate and the radio activity is counted in Microbia counter.

[4] = biological target: T1, 5-hydroxytryptamine receptor 3A (Homo sapiens) (UniProt P46098)
T1 sequence (whole entry): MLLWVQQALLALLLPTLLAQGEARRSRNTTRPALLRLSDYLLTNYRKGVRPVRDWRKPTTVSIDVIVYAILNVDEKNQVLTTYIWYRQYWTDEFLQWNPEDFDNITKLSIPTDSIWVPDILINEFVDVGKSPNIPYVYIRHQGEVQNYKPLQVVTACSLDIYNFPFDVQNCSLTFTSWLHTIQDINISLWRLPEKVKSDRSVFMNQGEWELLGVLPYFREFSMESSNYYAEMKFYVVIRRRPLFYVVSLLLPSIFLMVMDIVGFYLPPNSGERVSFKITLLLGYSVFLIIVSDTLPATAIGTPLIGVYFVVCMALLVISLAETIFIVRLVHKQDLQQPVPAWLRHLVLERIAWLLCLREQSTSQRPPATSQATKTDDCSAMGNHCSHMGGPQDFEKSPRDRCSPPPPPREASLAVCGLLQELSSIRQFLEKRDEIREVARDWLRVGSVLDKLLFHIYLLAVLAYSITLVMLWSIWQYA
Description: PDSP Primary Binding target: HTR3A - Compounds are tested at 10 uM concentration, plate are incubated at room temperature in the dark for 90 minutes. Reaction are stopped by vacuum filtration onto 0.3% polyethyleneimine soaked filter mats using Filtermate harvester. Scintilation cocktail is then melted onto microwave-dried filters on a hot plate and the radio activity is counted in Microbia counter.

[5] = biological target: Muscarinic acetylcholine receptor M3 (Homo sapiens) (UniProt P20309)
Muscarinic acetylcholine receptor M3 (Homo sapiens), sequence (P20309 whole entry, looked up): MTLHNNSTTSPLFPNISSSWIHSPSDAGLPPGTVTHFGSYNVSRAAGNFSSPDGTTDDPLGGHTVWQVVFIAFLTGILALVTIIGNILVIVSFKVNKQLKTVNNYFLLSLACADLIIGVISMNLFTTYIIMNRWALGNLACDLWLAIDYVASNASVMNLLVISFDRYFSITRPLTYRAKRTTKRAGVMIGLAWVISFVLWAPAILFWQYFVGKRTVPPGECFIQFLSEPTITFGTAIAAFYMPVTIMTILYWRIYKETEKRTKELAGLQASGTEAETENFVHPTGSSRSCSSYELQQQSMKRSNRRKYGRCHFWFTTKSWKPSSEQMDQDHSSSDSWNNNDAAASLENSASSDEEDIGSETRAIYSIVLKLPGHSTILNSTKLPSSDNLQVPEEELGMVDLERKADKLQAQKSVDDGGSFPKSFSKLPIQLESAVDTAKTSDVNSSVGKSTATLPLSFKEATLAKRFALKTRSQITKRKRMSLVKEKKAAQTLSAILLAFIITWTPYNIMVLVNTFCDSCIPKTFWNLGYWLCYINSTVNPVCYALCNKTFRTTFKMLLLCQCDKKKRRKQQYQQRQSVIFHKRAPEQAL
Description: PDSP Primary Binding target: CHRM3 - Compounds are tested at 10 uM concentration, plate are incubated at room temperature in the dark for 90 minutes. Reaction are stopped by vacuum filtration onto 0.3% polyethyleneimine soaked filter mats using Filtermate harvester. Scintilation cocktail is then melted onto microwave-dried filters on a hot plate and the radio activity is counted in Microbia counter.

[6] = biological target: 5-hydroxytryptamine receptor 2B (Homo sapiens) (UniProt P41595)
5-hydroxytryptamine receptor 2B (Homo sapiens), sequence (P41595 whole entry): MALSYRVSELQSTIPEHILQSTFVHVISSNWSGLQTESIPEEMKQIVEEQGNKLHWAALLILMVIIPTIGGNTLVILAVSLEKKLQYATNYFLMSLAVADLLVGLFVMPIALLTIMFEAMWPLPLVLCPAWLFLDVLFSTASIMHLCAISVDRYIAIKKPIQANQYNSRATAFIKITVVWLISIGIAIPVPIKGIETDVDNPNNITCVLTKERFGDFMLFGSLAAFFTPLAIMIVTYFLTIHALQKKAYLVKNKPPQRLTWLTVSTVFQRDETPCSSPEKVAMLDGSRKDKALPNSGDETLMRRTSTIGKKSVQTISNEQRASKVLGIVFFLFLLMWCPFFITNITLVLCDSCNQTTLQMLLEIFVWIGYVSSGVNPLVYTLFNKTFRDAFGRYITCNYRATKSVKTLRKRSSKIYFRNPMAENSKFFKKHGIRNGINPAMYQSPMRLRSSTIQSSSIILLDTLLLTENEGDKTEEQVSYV
Description: PDSP Primary Binding target: HTR2B - Compounds are tested at 10 uM concentration, plate are incubated at room temperature in the dark for 90 minutes. Reaction are stopped by vacuum filtration onto 0.3% polyethyleneimine soaked filter mats using Filtermate harvester. Scintilation cocktail is then melted onto microwave-dried filters on a hot plate and the radio activity is counted in Microbia counter.

[7] = biological target: T2, Alpha-1B adrenergic receptor (Homo sapiens) (UniProt P35368)
T2 sequence (whole entry): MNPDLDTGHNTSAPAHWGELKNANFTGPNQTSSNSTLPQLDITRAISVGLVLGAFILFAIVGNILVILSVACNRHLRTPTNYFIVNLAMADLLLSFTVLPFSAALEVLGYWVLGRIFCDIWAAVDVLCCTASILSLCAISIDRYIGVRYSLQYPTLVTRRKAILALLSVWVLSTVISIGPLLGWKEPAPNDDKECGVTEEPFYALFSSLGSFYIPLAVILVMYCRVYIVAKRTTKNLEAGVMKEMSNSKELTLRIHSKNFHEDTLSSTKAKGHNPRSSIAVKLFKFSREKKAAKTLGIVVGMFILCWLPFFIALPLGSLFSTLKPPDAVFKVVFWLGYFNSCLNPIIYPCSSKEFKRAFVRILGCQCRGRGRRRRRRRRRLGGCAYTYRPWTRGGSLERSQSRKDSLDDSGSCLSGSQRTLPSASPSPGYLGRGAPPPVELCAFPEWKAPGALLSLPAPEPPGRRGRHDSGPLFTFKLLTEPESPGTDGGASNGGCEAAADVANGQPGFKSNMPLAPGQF
Description: PDSP Primary Binding target: ADRA1B - Compounds are tested at 10 uM concentration, plate are incubated at room temperature in the dark for 90 minutes. Reaction are stopped by vacuum filtration onto 0.3% polyethyleneimine soaked filter mats using Filtermate harvester. Scintilation cocktail is then melted onto microwave-dried filters on a hot plate and the radio activity is counted in Microbia counter.

[8] = biological target: Beta-3 adrenergic receptor (Homo sapiens) (UniProt P13945)
Beta-3 adrenergic receptor (Homo sapiens), sequence (P13945 whole entry, looked up): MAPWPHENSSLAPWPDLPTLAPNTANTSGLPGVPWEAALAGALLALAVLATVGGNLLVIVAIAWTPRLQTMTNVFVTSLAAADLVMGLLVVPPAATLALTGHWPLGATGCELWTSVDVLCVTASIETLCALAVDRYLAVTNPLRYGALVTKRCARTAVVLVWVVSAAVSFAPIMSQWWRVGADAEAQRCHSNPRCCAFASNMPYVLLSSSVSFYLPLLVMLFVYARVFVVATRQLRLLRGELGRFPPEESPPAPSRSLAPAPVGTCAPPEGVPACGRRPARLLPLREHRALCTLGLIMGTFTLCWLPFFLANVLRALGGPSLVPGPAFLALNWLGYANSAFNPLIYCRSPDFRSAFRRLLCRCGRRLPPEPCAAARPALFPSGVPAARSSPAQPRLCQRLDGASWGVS
Description: PDSP Primary Binding target: ADRB3 - Compounds are tested at 10 uM concentration, plate are incubated at room temperature in the dark for 90 minutes. Reaction are stopped by vacuum filtration onto 0.3% polyethyleneimine soaked filter mats using Filtermate harvester. Scintilation cocktail is then melted onto microwave-dried filters on a hot plate and the radio activity is counted in Microbia counter.

[9] = biological target: Histamine H3 receptor (Homo sapiens) (UniProt Q9Y5N1)
Histamine H3 receptor (Homo sapiens), sequence (Q9Y5N1 whole entry): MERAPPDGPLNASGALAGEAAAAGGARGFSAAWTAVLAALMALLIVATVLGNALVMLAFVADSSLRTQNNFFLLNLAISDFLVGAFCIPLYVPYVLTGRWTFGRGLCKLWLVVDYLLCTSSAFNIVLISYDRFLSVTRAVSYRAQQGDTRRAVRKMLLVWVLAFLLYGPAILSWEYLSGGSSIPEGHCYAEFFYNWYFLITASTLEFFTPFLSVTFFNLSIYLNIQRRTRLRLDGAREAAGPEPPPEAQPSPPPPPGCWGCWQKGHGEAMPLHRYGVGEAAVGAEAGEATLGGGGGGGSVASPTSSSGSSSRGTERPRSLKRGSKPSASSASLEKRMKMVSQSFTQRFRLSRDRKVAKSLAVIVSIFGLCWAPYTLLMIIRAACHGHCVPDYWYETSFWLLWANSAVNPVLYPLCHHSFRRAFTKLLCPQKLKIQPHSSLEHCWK
Description: PDSP Primary Binding target: HRH3 - Compounds are tested at 10 uM concentration, plate are incubated at room temperature in the dark for 90 minutes. Reaction are stopped by vacuum filtration onto 0.3% polyethyleneimine soaked filter mats using Filtermate harvester. Scintilation cocktail is then melted onto microwave-dried filters on a hot plate and the radio activity is counted in Microbia counter.

[10] = biological target: 5-hydroxytryptamine receptor 5A (Homo sapiens) (UniProt P47898)
5-hydroxytryptamine receptor 5A (Homo sapiens), sequence (P47898 whole entry): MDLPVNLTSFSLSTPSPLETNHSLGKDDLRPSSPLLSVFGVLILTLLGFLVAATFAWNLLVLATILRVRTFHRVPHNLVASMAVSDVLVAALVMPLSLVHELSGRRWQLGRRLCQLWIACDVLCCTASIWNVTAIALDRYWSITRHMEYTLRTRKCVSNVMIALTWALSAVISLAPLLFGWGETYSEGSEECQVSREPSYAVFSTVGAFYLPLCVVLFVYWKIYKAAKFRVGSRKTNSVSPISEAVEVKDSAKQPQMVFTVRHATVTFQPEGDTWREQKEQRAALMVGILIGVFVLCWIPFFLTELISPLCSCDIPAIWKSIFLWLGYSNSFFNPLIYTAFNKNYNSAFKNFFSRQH
Description: PDSP Primary Binding target: HTR5A - Compounds are tested at 10 uM concentration, plate are incubated at room temperature in the dark for 90 minutes. Reaction are stopped by vacuum filtration onto 0.3% polyethyleneimine soaked filter mats using Filtermate harvester. Scintilation cocktail is then melted onto microwave-dried filters on a hot plate and the radio activity is counted in Microbia counter.

[11] = biological target: T3, Alpha-1D adrenergic receptor (Homo sapiens) (UniProt P25100)
T3 sequence (whole entry): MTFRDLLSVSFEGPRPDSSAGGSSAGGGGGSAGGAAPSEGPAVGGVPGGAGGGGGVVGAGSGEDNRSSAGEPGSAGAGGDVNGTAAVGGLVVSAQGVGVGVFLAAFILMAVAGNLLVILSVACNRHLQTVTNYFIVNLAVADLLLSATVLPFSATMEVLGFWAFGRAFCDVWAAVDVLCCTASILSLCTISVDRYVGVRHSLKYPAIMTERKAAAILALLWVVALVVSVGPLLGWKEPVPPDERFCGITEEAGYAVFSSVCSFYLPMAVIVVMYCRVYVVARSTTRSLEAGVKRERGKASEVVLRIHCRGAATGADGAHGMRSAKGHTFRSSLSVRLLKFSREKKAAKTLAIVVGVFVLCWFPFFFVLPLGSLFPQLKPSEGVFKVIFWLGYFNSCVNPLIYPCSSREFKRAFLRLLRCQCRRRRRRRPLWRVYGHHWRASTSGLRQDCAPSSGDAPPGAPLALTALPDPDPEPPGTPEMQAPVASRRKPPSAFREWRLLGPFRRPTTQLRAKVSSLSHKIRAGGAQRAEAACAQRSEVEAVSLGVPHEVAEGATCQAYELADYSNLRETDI
Description: PDSP Primary Binding target: ADRA1D - Compounds are tested at 10 uM concentration, plate are incubated at room temperature in the dark for 90 minutes. Reaction are stopped by vacuum filtration onto 0.3% polyethyleneimine soaked filter mats using Filtermate harvester. Scintilation cocktail is then melted onto microwave-dried filters on a hot plate and the radio activity is counted in Microbia counter.

[12] = biological target: T4, Muscarinic acetylcholine receptor M2 (Homo sapiens) (UniProt P08172)
T4 sequence (whole entry): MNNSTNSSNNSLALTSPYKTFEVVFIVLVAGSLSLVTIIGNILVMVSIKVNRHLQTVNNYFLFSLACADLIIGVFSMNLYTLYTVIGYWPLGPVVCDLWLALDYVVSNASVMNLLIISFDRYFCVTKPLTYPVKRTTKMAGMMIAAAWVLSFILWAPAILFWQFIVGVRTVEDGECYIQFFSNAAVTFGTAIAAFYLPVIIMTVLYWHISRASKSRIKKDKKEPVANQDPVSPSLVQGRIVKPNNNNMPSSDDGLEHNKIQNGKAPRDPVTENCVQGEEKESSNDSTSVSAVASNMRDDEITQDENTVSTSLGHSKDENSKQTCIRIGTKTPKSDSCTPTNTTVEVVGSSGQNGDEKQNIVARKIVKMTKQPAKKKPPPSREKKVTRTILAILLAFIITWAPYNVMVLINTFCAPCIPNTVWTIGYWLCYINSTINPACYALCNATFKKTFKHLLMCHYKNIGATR
Description: PDSP Primary Binding target: CHRM2 - Compounds are tested at 10 uM concentration, plate are incubated at room temperature in the dark for 90 minutes. Reaction are stopped by vacuum filtration onto 0.3% polyethyleneimine soaked filter mats using Filtermate harvester. Scintilation cocktail is then melted onto microwave-dried filters on a hot plate and the radio activity is counted in Microbia counter.

[13] = biological target: Beta-1 adrenergic receptor (Homo sapiens) (UniProt P08588)
Beta-1 adrenergic receptor (Homo sapiens), sequence (P08588 whole entry, looked up): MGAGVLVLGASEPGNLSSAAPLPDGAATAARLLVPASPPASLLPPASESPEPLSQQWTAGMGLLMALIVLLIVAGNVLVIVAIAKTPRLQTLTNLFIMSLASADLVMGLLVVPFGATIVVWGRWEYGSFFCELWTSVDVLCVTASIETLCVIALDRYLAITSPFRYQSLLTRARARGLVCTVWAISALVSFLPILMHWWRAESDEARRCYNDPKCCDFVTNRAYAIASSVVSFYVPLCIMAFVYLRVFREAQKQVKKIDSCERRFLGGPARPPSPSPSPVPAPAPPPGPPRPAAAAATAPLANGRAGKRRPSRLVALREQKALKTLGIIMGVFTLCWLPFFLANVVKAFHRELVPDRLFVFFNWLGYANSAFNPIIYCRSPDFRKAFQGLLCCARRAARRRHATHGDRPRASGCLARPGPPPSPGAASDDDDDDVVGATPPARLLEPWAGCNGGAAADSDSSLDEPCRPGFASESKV
Description: PDSP Primary Binding target: ADRB1 - Compounds are tested at 10 uM concentration, plate are incubated at room temperature in the dark for 90 minutes. Reaction are stopped by vacuum filtration onto 0.3% polyethyleneimine soaked filter mats using Filtermate harvester. Scintilation cocktail is then melted onto microwave-dried filters on a hot plate and the radio activity is counted in Microbia counter.

Sodium-dependent dopamine transporter (Homo sapiens), sequence (Q01959 whole entry): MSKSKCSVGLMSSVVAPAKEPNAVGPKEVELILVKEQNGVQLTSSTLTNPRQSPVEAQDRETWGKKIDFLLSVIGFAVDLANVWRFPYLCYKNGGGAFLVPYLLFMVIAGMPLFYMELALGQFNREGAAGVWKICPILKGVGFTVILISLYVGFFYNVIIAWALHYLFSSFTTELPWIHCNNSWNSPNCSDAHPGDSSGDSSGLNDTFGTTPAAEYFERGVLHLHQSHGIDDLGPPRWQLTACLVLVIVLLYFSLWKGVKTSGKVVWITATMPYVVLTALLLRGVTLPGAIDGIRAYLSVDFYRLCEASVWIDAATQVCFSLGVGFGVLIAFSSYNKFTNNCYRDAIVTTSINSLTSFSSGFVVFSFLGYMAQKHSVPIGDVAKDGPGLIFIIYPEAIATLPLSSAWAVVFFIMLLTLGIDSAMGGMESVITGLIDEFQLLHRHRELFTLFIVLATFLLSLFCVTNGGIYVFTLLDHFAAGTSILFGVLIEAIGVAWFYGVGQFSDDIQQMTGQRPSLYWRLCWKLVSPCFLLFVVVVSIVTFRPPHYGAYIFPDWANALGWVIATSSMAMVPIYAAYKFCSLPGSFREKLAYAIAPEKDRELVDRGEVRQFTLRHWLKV
Sigma non-opioid intracellular receptor 1 (Homo sapiens), sequence (Q99720 whole entry): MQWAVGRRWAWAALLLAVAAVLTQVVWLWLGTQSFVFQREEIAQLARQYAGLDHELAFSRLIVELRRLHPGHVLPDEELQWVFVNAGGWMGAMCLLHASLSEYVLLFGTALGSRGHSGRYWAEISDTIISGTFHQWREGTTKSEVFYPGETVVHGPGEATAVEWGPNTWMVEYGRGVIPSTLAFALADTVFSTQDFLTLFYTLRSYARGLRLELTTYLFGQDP
Histamine H2 receptor (Homo sapiens), sequence (P25021 whole entry): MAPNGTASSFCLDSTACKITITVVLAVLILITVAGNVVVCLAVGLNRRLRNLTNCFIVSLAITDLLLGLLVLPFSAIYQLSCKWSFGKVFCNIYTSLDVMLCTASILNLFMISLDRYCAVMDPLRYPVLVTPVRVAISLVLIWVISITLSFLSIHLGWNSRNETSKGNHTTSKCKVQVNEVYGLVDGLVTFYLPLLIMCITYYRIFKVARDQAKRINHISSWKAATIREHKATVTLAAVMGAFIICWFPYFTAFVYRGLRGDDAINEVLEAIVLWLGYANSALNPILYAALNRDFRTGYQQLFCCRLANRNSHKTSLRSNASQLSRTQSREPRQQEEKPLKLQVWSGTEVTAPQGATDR

SMILES	inhibition [1]	inhibition [2]	inhibition [3]	inhibition [4]	inhibition [5]	inhibition [6]	inhibition [7]	inhibition [8]	inhibition [9]	inhibition [10]	inhibition [11]	inhibition [12]	inhibition [13]
CN(C)S(=O)(=O)c1ccc(NC(=S)N2CCC(C(O)(c3ccccc3)c3ccccc3)CC2)cc1	45.3%	18.6%	33.1%	-8.86%	-7.46%	23.4%	-3.51%	57.7%	–	–	–	–	–
CS(=O)(=O)NC[C@H]1CC[C@H](Nc2nc3c(s2)CCSc2ccccc2-3)CC1	45.3%	-2.3%	3.98%	0.88%	-7.8%	83%	-8.21%	45.4%	-7.45%	64.7%	2.44%	–	–
COc1cccc(-c2c(C)n(Cc3c(F)cccc3C(F)(F)F)c(=O)n(C[C@H](NCCCC(=O)O)c3ccccc3)c2=O)c1F	2.12%	–	–	–	-7.5%	-6.96%	–	44.5%	–	35.8%	-7.43%	3.22%	–
N#Cc1c(O)nc(SCc2cccc(F)c2F)nc1C1CC1	18.2%	6.35%	45.1%	–	5.27%	9.1%	-9.08%	–	18.8%	8.42%	–	28.1%	28.6%
CCCNS(=O)(=O)Nc1ncnc(OCCOc2ncc(Br)cn2)c1-c1ccc(Br)cc1	15.8%	–	31.1%	–	20.8%	–	12.1%	42.6%	1.52%	–	0.01%	-6.56%	–
COc1ccc(CNC(=O)c2cc(-c3cncc(Cl)c3)cnc2-c2ccccn2)nc1OC	-2.32%	-5.76%	36.3%	–	-0.37%	-6.96%	0.01%	–	-2.53%	–	-7.71%	10.6%	30.3%
N#Cc1c[nH]c2c(C(=O)N3CCN(CCc4ccc(F)cc4)CC3)cccc12	87.6%	4.27%	36.2%	-8.41%	–	57.1%	36.8%	22.4%	-0.43%	12.6%	-4.02%	–	35.6%
Cc1c(F)cccc1NC(=O)Nc1ccc(Cl)c(S(=O)(=O)[C@H]2CCCNC2)c1O	9.71%	18.3%	14.9%	–	22.8%	44.3%	–	17.8%	–	16.5%	–	–	–
c1nc(CC2CCNCC2)c[nH]1	38.7%	–	14.6%	6.29%	6.47%	30.4%	15.3%	–	95.9%	-4.49%	7.26%	10.6%	-4.6%
Cc1nc(-c2ccc(C(F)(F)F)cc2)sc1COc1ccc([C@H](CC(=O)O)c2ccon2)cc1	37.7%	15.9%	51.1%	–	2.18%	0.53%	69%	–	9.74%	26.8%	-8.39%	25.2%	24.6%
O=C(O)COc1cccc(CN(Cc2ccc(-n3cccn3)cc2)S(=O)(=O)c2cccnc2)c1	5.04%	3.71%	–	–	7.64%	5.26%	-5.67%	–	6.23%	–	–	–	–
Cc1ccc2c(c1)c1c(n2CCc2ccc(C)nc2)CCN(C)C1	71.7%	96.5%	–	21.6%	18%	76.9%	85%	0.23%	16.2%	94.8%	84.6%	–	–
